Key:
Format in all cases: cell-based
Pink Yeast = test: Yeast challenge, pink yeast; details: after 4 hours in blue cheese brine; Table 21 (sodium octanoate experiment)
Protocol: (§1) “Yeast” Procedure: • 1. Inoculate a separate tube containing 10 ml of Brain Heart Infusion (BHI) broth for each wild type (Raised, Rough and Flat white yeast along with a single pink yeast). Incubate for 5 days at 26° C.+/−2° C. • 2. Assume growth to be 10^7 cfu/ml. Since 4 cultures are being used, combine 2.75 ml of each culture added to 99 ml of cold Butterfield's Phosphate Buffered Water (PBW) to obtain 10^6 cfu/ml of yeast cocktail. • 3. Plate serial dilutions of the culture to get the starting count of the inoculum on Dichloran-Rose Bengal-Chloramphenicol Agar (DRBC). • 4. Add 1 ml of the diluted cocktail to 100 ml of cold test solution. • 5. Determine the population at time 0 and 4 hours. Spread plate serial dilutions to DRBC agar. • 6. Incubate the test solutions at 10° C.+/−2° C. for the duration of the experiment. • 7. Incubate the plates at 20° C.+/−2° C. for 5 days+/−2 hours. • 8. Count representative colonies and multiply by the dilution factor. Note: Each test solution should contain ˜10^4 cfu/ml.
(§2) In order to determine if the effect of the additive was repeatable, more challenge tests were run on samples of process brine. […] In this test the solutions were challenged with two distinct yeast (a white and a pink) types and coliforms from the samples sent by the cheese plant.

black mold = test: “Mold” procedure, black mold; details: after 4 hours in blue cheese brine; Table 20; inoculum 2.5 × 10^4 (est)
Protocol: (§3) In the present example, cultures of various microorganisms native to actual process brines used in cheese manufacture were obtained from a cheese plant. The cultures of yeast, mold, and coliforms were grown and used to test the efficacy of various antimicrobial additives in blue cheese brines. Organism cultures included four different types of yeast (three distinct while yeast cultures and a pink yeast), a black mold culture, a coliform culture, a culture of mixed green mold and yeast that were not separated, and a culture that was identified by the cheese plant as heterofermentative lactic acid bacteria, although no actual identification of the strain was carried out.
(§4) “Mold” Procedure: • 1. From refrigerated stock mold cultures, take 1 ml from black mold dilution bottle added to 99 ml of cold Butterfield's Phosphate Buffered Water (PBW) to obtain 10^5 cfu/ml. • 2. Take 1 ml from green mold/white yeast mixture dilution bottle added to 99 ml of cold Butterfield's Phosphate Buffered Water (PBW) to obtain 10^6 cfu/ml. • 3. Plate serial dilutions of the cultures to get the starting count of the inoculum on Dichloran-Rose Bengal-Chloramphenicol Agar (DRBC). • 4. Add 1 ml of the diluted mold culture to 100 ml of cold test solution (do separately for each of the two mold cultures). • 5. Determine the population at time 0 and 4 hours. Spread plate serial dilutions to DRBC agar. • 6. Incubate the test solutions at 10° C.+/−2° C. for the duration of the experiment. • 7. Incubate the plates at 20° C.+/−2° C. for 5 days+/−2 hours. • 8. Count representative colonies and multiply by the dilution factor. Note: For black mold, each test solution should contain ˜10^3 cfu/ml. For green mold/white yeast mixture, each test solution should contain ˜10^4 cfu/ml.

White Yeast = test: Yeast challenge, white yeast; details: after 4 hours in blue cheese brine; Table 21 (sodium octanoate experiment)
Protocol: as §1, §2

[1] = test system: heterofermentative lactic acid bacteria (not identified); test: “Lactic Bacteria” procedure in cheese brine; details: after 4 hours in blue cheese brine; Table 20; inoculum 1.2 × 10^7 (est)
Protocol: as §3
“Lactic Bacteria” Procedure: • 1. Inoculate a separate tube containing 10 ml of Brain Heart Infusion (BHI) broth for each wild type tactics 1 and 2. Incubate for 72+/−2 hours at 30° C.+/−2° C. • 2. Assume growth to be 10^9 cfu/ml. Since two cultures are being used, combine 5.5 ml of each culture added to 99 ml of cold Butterfield's Phosphate Buffered Water (PBW) to obtain 10^8 cfu/ml. • 3. Plate serial dilutions of the culture to get the starting count of the inoculum on Lactobacilli MRS Agar (MRSA). • 4. Add 1 ml of the diluted cocktail to 100 ml of cold test solution. • 5. Determine the population at time 0 and 4 hours. Plate serial dilutions using MRSA spread plates. • 6. Incubate the test solutions at 10° C.+/−2° C. for the duration of the experiment. • 7. Incubate the plates at 30° C.+/−2° C. for 72+/−2 hours. • 8. Count representative colonies and multiply by the dilution factor. Note: Each test solution should contain ˜10^8 cfu/ml.
In this experiment solutions were challenged with cultures of the black mold, the green mold/yeast combination, and the bacteria thought to be “lactic acid” bacteria. In this experiment, a brine control with no additive was neglected, but the data still indicate the strong effectiveness of the octanoic acid against yeast and mold.

[2] = test system: wild type coliforms from cheese plant brine; test: Coliforms procedure in cheese brine or buffered solution; details: after 4 hours in blue cheese brine; Table 21 (sodium octanoate experiment)
Protocol: as §3
Coliforms Procedure: • 1. Inoculate a separate tube containing 10 ml of Brain Heart Infusion (BHI) broth for each wild type coliforms 1 and 2. Incubate for 24+/−2 hours at 35° C.+/−2° C. • 2. Assume growth to be 10^9 cfu/ml. Since two cultures are being used, combine 5.5 ml of each culture added to 99 ml of cold Butterfield's Phosphate Buffered Water (PBW) to obtain 10^8 cfu/ml. • 3. Plate serial ten-fold dilutions of the culture to get the starting count of the inoculum on Violet Red Bile Agar (VRBA). • 4. Add 1 ml of the diluted cocktail to 100 ml of cold test solution. • 5. Determine the population at time 0 and 4 hours by plating serial dilutions to VRBA spread plates. • 6. Incubate the test solutions at 10° C.+/−2° C. for the duration of the experiment. • 7. Incubate the plates at 20° C.+/−2° C. for 72+/−2 hours. • 8. Count representative colonies and multiply by the dilution factor. Note: Each test solution should contain ˜10^8 cfu/ml.
The brines were treated with different concentrations of octanoic acid and then challenged with a yeast cocktail (which included the pink and 3 different white mold types), the green mold+yeast combination, and coliforms.

[3] = test system: green mold/white yeast mixture; test: “Mold” procedure, green mold/white yeast mixture; details: after 4 hours in blue cheese brine; Table 20; inoculum 5.8 × 10^6 (est)
Protocol: as §3, §4
Screening tests identified octanoic acid as a promising antimicrobial additive for salt brines. Table 16 gives results of a challenge test run on actual blue cheese and mozzarella process brine samples sent from a cheese plant. The brines were treated with different concentrations of octanoic acid and then challenged with a yeast cocktail (which included the pink and 3 different white mold types), the green mold+yeast combination, and coliforms. […] The plate counts listed parenthetically as (est) were too numerous to count and were estimated.

[4] = test system: Uncharacterized microorganisms cultured from raw ground beef; test: Total plate count challenge of 24% NaCl brine with ground beef organisms; details: after 4 hours in 24% NaCl brine at −5° C.
Protocol: Tests were run to determine the effectiveness of formulas against organisms other than L. monocytogenes. […] The test solutions were inoculated with the ground beef organism culture and incubated for 4 hours at −5° C. before plating.

L. monocytogenes biofilm = test: L. mono biofilm challenge in hot dog plant chill brine at −20° C.; details: for L. mono biofilm count, 1 hour: 1 hour at −20° C.; for L. mono biofilm count, 1 hour / L. mono biofilm count, 24 hours: hot dog plant chill brine with cooked turkey added; for L. mono biofilm count, 24 hours: 24 hours at −20° C.
Protocol: Biofilms can provide a haven for pathogens, increasing their resistance to antimicrobial treatments, and thereby providing another possible source of food contamination. Tests were run to see if some embodiments were effective against a L. monocytogenes biofilm. Challenge tests were run according to the procedure below. Test solutions were prepared from a sample of hot dog plant chill brine which was treated with various levels of the alcohol ethoxylate surfactant. Cooked turkey was added to the test solution before inoculation to simulate a worst case “dirty” brine with a high degree of organic load.
1. Inoculate five cultures, L. monocytogenes H2446 (CDC Global Standard), Scott A-serotype 4b, 12243-serotype 1/2a, WP1 and WP4 in 10 ml Brain Heart Infusion broth (BHI). Incubate the tubes for 7 days at 10° C.+/−2° C. 2. Aseptically dispense 50 ml of sterile Tryptic Soy Broth (TSB)+0.6% Yeast Extract (YE) into sterile disposable 50 ml conical shaped plastic tubes. Make enough tubes for each time point. 3. Aseptically drop one coupon into the broth in each tube. 4. Make a cocktail of the five cultures and add 0.1 ml into each tube. Incubate the tubes for 7 days at 7° C.+/−2° C. 5. Dispense 40 ml of antimicrobial salt solutions containing sterile phosphate buffer into 50 ml plastic tubes. 6. After biofilm has grown, aseptically remove coupon and rinse each side for 5 seconds with sterile distilled water to remove unattached cells. 7. Aseptically drop each rinsed coupon into the antimicrobial salt solution tube and incubate for appropriate time (1 hour and 24 hour) at −20° C.+/−2° C. 8. Aseptically add 45 ml of sterile phosphate buffer (PBW) to 50 ml conical shaped plastic tubes along with 10 sterile glass beads. 9. After incubate time is complete, aseptically move the coupon from the antimicrobial salt solution to the sterile (PBW) solution containing beads. 10. Shake the tube with glass beads for about 2 minutes to remove attached cells. 11. Plate the cells in the PBW solution on TSA+0.6% YE using appropriate dilutions and incubate at 20° C. for 72+/−2 hours. 12. Plate the antimicrobial salt solution on TSA+0.6% YE using appropriate *dilutions and incubate 20° C. for 72+/−2 hours. *Please make note: The first dilution should take place in 9 ml DE Neutralizing Buffer. After incubation, count typical colonies and record results to cfu/g.

L. monocytogenes = L. monocytogenes cocktail challenge of surfactant/salt solutions at 2° C.; details: after 4 hours in solution at 2° C.; Table 2, different salts and salt concentrations
Protocol: Tests were generally run according to the following procedure:
1. Inoculate a separate tube containing approximately 10 ml of Brain Heart infusion (BHI) broth with the following L. monocytogenes strains: H2446 (CDC Global Standard), Scott A (serotype 4b), 12243 (serotype 1/2a), and two strains isolated from the environment of a cooked meat and poultry facility, designated WP1, and WP4. Incubate the tubes at least 5 days at 7-10° C.+/−2° C. 2. Assume the growth to be 10^9 cfu/ml. Serially dilute each culture in cold (˜7° C.). Butterfield's Phosphate Buffered Water (PBW) to 10^8 cfu/ml (1:10). Since five cultures of L. monocytogenes are being used as a cocktail, begin the dilution series using 2.20 ml of each culture added to 99 ml of PBW. 3. Plate (−6, −7, −8) the diluted culture to get the starting count of the inoculum on Modified Oxford medium (MOX) using a thin agar overlay (TAL) technique (overlay with Trypticase Soy Agar [TSA]) to revive injured cells. 4. Add 1 ml of the diluted cocktail to 100 ml of cold test solution. 5. Mix the solutions well. 6. Determine the L. monocytogenes population at time 0 and 4 hours. Plate −1 (0.1 ml on 1 plate), −2, −3, and −4 dilutions using spread plates on MOX TAL with TSA. 7. Incubate the test solutions at test temperature for the duration of the experiment. 8. Incubate the MOX TAL with TSA plates at 20° C.+/−2° C. for 72+/−3 hours. Count representative colonies, which are black, and multiply by the dilution factor.

With CCCCCCCC(=O)O [62.5 ppm octanoic acid, octanoic acid] the “Pink Yeast count” value (Pink Yeast) was under 10 cfu/mL, the “Black Mold count” value (black mold) was under 10 cfu/mL and the “White Yeast count” value (White Yeast) was 90 cfu/mL. For the same compound, the ““Lactics” count” value [1] was 1.5 × 10^5 cfu/mL, the Coliforms count [2] was 3.8 × 10^4 cfu/mL and the “Green Mold + Yeast count” value [3] was 1.0 × 10^4 cfu/mL.
With sodium linear alkylbenzene sulfonate the Total plate count [4] was under 10 cfu/mL.
In the case of sodium salt of sulfonated oleic acid, the Total plate count [4] is reported as 5.2 × 10^3 cfu/mL.
“nonylphenolethoxylate [800 ppm nonylphenolethoxylate]” was tested, and the Total plate count [4] was 40 cfu/mL.
“alcohol ethoxylate [15 ppm alcohol ethoxylate]” was tested, and the “L. mono biofilm count, 1 hour” value (L. monocytogenes biofilm) was 5,000 cfu/coupon and the “L. mono biofilm count, 24 hours” value (L. monocytogenes biofilm) was 5600 cfu/coupon.
For “decyl alcohol ethoxylate, POE-6 [800 ppm decyl alcohol ethoxylate, POE-6]”, the Total plate count [4] was 10 cfu/mL.
“alcohol ethoxylate [25 ppm alcohol ethoxylate]” was tested, and the “L. mono biofilm count, 1 hour” value (L. monocytogenes biofilm) was 3500 cfu/coupon and the “L. mono biofilm count, 24 hours” value (L. monocytogenes biofilm) was 250 cfu/coupon.
“alcohol ethoxylate [50 ppm alcohol ethoxylate]” was tested, and the “L. mono biofilm count, 1 hour” value (L. monocytogenes biofilm) was 10-100 cfu/coupon, the “L. mono biofilm count, 24 hours” value (L. monocytogenes biofilm) was under 10 cfu/coupon and the “log kill of the biofilm within 1 hour” value (L. monocytogenes biofilm; very “dirty” brine, −20° C., 1 hour) was over 2 log. For the same compound, the “log kill of the biofilm after 24 hours” value (L. monocytogenes biofilm; very “dirty” brine, −20° C., 24 hours) was over 3 log and the L. mono count (L. monocytogenes) was 1.9 × 10^5 cfu/mL.
“alcohol ethoxylate [800 ppm alcohol ethoxylate]” gave a Total plate count [4] of under 10 cfu/mL.

From patent publication US20110212235A1, “ANTIMICROBIAL SALT SOLUTIONS FOR CHEESE PROCESSING APPLICATIONS” (priority 2006, published 2011)
